What was measured:
Test in all cases: relative viability (nuclei count vs DMSO), 5 days (fraction); higher = more cells survive
Imatinib + Trametinib = compound: Cc1ccc(NC(=O)c2ccc(CN3CCN(C)CC3)cc2)cc1Nc1nccc(-c2cccnc2)n1 [Imatinib] + CC(=O)Nc1cccc(-n2c(=O)n(C3CC3)c(=O)c3c(Nc4ccc(I)cc4F)n(C)c(=O)c(C)c32)c1 [Trametinib] (partner 0.02 µM)
Outline: (§1)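 Lung cancer cell lines were seeded in 1536-well plates and dosed by pin tool the next day, with either a single drug or a fixed anchor-drug dose combined with five library-drug doses (not always all listed) spaced in √10 steps. Five days later, one step fixed the cells and stained their nuclei (final 0.05% Triton X-100, 1% formaldehyde, 1 ug/ml Hoechst), and nuclei were counted on 4× images. Relative viability is the nuclei count in treated wells divided by the count in vehicle wells, and each value is the median of duplicate plates.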

Imatinib + Alpelisib = compound: Cc1ccc(NC(=O)c2ccc(CN3CCN(C)CC3)cc2)cc1Nc1nccc(-c2cccnc2)n1 [Imatinib] + Cc1nc(NC(=O)N2CCC[C@H]2C(N)=O)sc1-c1ccnc(C(C)(C)C(F)(F)F)c1 [Alpelisib] (partner 2 µM)
Outline: as §1

Imatinib + Pictilisib = compound: Cc1ccc(NC(=O)c2ccc(CN3CCN(C)CC3)cc2)cc1Nc1nccc(-c2cccnc2)n1 [Imatinib] + CS(=O)(=O)N1CCN(Cc2cc3nc(-c4cccc5[nH]ncc45)nc(N4CCOCC4)c3s2)CC1 [Pictilisib] (partner 1 µM)
Outline: as §1

Imatinib + Crizotinib = compound: Cc1ccc(NC(=O)c2ccc(CN3CCN(C)CC3)cc2)cc1Nc1nccc(-c2cccnc2)n1 [Imatinib] + C[C@@H](Oc1cc(-c2cnn(C3CCNCC3)c2)cnc1N)c1c(Cl)ccc(F)c1Cl [Crizotinib] (partner 1 µM)
Outline: as §1

Cell Line | relative viability (Imatinib + Trametinib; first compound 0.02 µM) | relative viability (Imatinib + Trametinib; first compound 0.06325 µM) | relative viability (Imatinib + Trametinib; first compound 0.2 µM) | relative viability (Imatinib + Trametinib; first compound 0.6325 µM) | relative viability (Imatinib + Trametinib; first compound 2 µM) | relative viability (Imatinib + Alpelisib; first compound 0.02 µM) | relative viability (Imatinib + Alpelisib; first compound 0.2 µM) | relative viability (Imatinib + Alpelisib; first compound 0.6325 µM) | relative viability (Imatinib + Alpelisib; first compound 2 µM) | relative viability (Imatinib + Pictilisib; first compound 0.02 µM) | relative viability (Imatinib + Pictilisib; first compound 0.2 µM) | relative viability (Imatinib + Pictilisib; first compound 0.6325 µM) | relative viability (Imatinib + Pictilisib; first compound 2 µM) | relative viability (Imatinib + Crizotinib; first compound 0.02 µM) | relative viability (Imatinib + Crizotinib; first compound 0.06325 µM) | relative viability (Imatinib + Crizotinib; first compound 0.2 µM) | relative viability (Imatinib + Crizotinib; first compound 0.6325 µM) | relative viability (Imatinib + Crizotinib; first compound 2 µM) | relative viability (Imatinib + Pictilisib; first compound 0.06325 µM) | relative viability (Imatinib + Alpelisib; first compound 0.06325 µM)
PC-14 | 1.01 | 1.18 | 1.11 | 0.765 | 0.897 | 1.15 | 1.13 | 0.926 | 0.854 | 0.69 | 0.874 | 0.688 | 0.859 | 1.15 | 0.936 | 0.935 | 0.958 | 0.848 |  | 
LK-2 | 0.783 | 0.61 | 0.919 |  | 0.87 | 1.33 | 1.23 | 1.18 | 1.19 | 0.639 | 0.581 | 0.488 | 0.572 | 0.213 |  | 0.224 | 0.236 | 0.179 |  | 
HCC-366 | 0.423 | 0.346 | 0.45 | 0.321 | 0.432 | 0.543 | 0.431 | 0.362 | 0.35 | 0.131 | 0.19 | 0.144 | 0.223 | 1.19 |  | 0.777 | 0.334 | 0.399 | 0.119 | 
LCLC-97TM1 | 0.235 |  | 0.183 | 0.207 | 0.172 |  | 0.236 | 0.231 | 0.266 |  | 0.18 | 0.225 | 0.164 |  |  | 0.358 | 0.34 | 0.407 |  | 
NCI-H596 | 0.721 | 1.06 | 0.876 | 0.693 |  | 0.489 | 0.39 | 0.446 | 0.448 | 0.416 | 0.42 | 0.394 | 0.388 |  | 0.991 | 1.06 | 0.928 | 0.975 | 0.375 | 0.459
HCC-827 | 0.483 | 0.517 | 0.646 | 0.562 | 0.515 | 0.987 | 1.05 |  | 1.01 | 0.817 | 1.1 | 0.926 | 0.952 | 0.954 | 0.889 | 0.91 |  | 0.973 | 0.942 | 0.861
NCI-H647 | 0.512 | 0.414 | 0.563 | 0.365 | 0.458 | 1.25 | 1.6 | 1.13 | 1.11 | 0.462 | 0.433 | 0.38 | 0.385 | 1.1 | 1.36 | 1.45 | 1.12 | 1.06 | 0.447 | 1.4
LXF-289 | 0.662 |  | 0.755 | 0.636 | 0.679 | 1.16 | 1.15 | 0.967 | 1.02 | 0.929 | 0.934 | 0.747 | 0.804 | 0.881 | 0.826 | 0.876 | 0.814 | 0.777 | 0.711 | 1.06
NCI-H1734 | 0.739 |  | 0.689 | 0.825 | 0.71 | 0.749 | 0.769 | 0.699 |  | 0.515 | 0.559 | 0.428 |  | 0.674 |  | 0.891 | 0.642 |  |  | 
SW 1573 | 0.614 | 0.565 | 0.619 | 0.618 | 0.631 | 0.826 | 1.13 | 0.842 | 0.927 | 0.623 | 0.528 | 0.561 | 0.483 | 0.996 |  | 0.956 | 0.726 | 0.755 | 0.501 | 0.785
NCI-H650 | 0.969 | 0.833 | 0.937 | 1.04 | 0.843 | 1.19 | 1.08 | 1.2 | 0.983 | 1.09 | 0.855 | 0.885 |  | 0.708 | 0.913 | 0.916 | 0.656 | 0.812 | 1.01 | 1.15
UMC-11 | 0.706 | 0.736 | 0.643 | 0.896 | 0.717 | 0.982 | 0.957 | 1.03 | 1.03 | 0.81 | 1 | 1.06 | 0.837 | 0.702 | 0.647 | 0.56 | 0.564 | 0.818 | 0.749 | 1.18
H3255 | 0.589 |  | 0.635 | 0.616 | 0.609 | 0.815 | 0.747 | 0.645 | 0.618 | 0.493 | 0.507 | 0.447 | 0.426 | 0.636 |  | 0.816 | 0.889 | 0.793 | 0.488 | 
NCI-H2085 | 0.49 | 0.515 | 0.535 | 0.58 | 0.513 | 1 | 1.05 | 1.01 | 0.876 | 0.448 | 0.472 | 0.594 | 0.434 | 0.826 | 0.891 | 0.903 | 0.839 | 0.841 | 0.462 | 0.937
A-427 | 0.745 | 0.786 | 0.757 | 0.76 | 0.712 | 1.11 |  | 1.1 | 1.06 | 0.749 | 0.692 | 0.739 | 0.663 | 0.981 |  | 0.993 | 0.755 |  |  | 
NCI-H661 | 0.62 | 0.419 | 0.649 | 0.586 | 0.593 | 0.689 | 0.546 | 0.68 | 0.521 | 0.333 | 0.456 | 0.374 | 0.413 |  | 0.806 | 1.05 |  | 0.869 | 0.431 | 0.406
LC-2-ad | 0.956 |  | 1.01 | 0.973 | 0.908 | 0.965 | 0.913 | 0.819 | 0.817 | 0.379 | 0.573 | 0.429 | 0.43 | 0.458 |  | 0.502 | 0.434 | 0.384 | 0.492 | 0.967
PC-3 [JPC-3] | 0.719 |  |  | 0.724 | 0.621 | 1.08 | 1.03 | 1.05 | 0.979 | 0.715 |  | 0.774 | 0.653 | 0.979 |  | 1.02 | 0.921 | 0.96 |  | 
NCI-H2228 | 0.663 | 0.338 | 0.467 | 0.507 | 0.605 | 0.814 | 0.724 | 0.626 | 0.807 | 0.525 | 0.427 | 0.534 | 0.52 | 0.351 | 0.383 | 0.54 | 0.478 | 0.393 | 0.178 | 0.782
